# Target: P. falciparum apicoplast DNA polymerase (Pf-apPOL) (Plasmodium falciparum, UniProt Q8ILY1)
# Experiment: Fluorescence-based high-throughput DNA polymerase assay (molecular beacon), primary screen and dose-response
# Assay type: biochemical
# Experimental: The HT assay employs a molecular beacon, a stem-loop DNA template with a Cy3 dye and the Black Hole Quencher on the 3′ and 5′ ends of the DNA, respectively. Pf-apPOL concentration is based on a calculated absorptivity of ε280 = 56750 M^−1 cm^−1. Reactions were carried out at 25 °C, using Corning 3575 […] (well-volume, 20 µL). Assays testing for compound inhibition composed of reaction buffer (pH 7.9 in 50 mM potassium acetate, 20 mM Tris-acetate and 10 mM magnesium acetate), Pf-apPOL (20 nM), DNA substrate (20 nM), dNTPs (6 µM), and compound (10 µM in DMSO). The DNA and nucleotide substrates (dNTPs) were at concentrations of 20 nM and 6 µM, respectively, in the assay. Pf-apPOL was incubated in the reaction buffer with dNTPs and the compound of interest (10 µM, in the assay) at 25 °C for 10 min. The DNA substrate was then added and the reaction was allowed to proceed for 90 min at 25 °C.
# Each assay plate contained 16 negative controls (no Pf-apPOL, DMSO present) and 16 positive controls (Pf-apPOL present, no DMSO). The fluorescence of each well was determined using a BioTek Synergy Neo fluorescence plate reader using excitation and emission wavelengths of 555 and 570 nm, respectively.
# In the above, Min is the average of fluorescence emission of the negative controls (substrate only), Max the average fluorescence emission from the positive controls (enzyme + substrate), and Test the emission from the assays in the presence of compounds (enzyme + compound + substrates). […] […] The IC50 of each compound was determined using Equation (2): (2) IC50= Vmax/(1+ (I/IC50)^n)
# In the above, n measures cooperativity, with n > 1 indicating synergistic binding of more than a single molecule of the compound.
# To identify apPOL inhibitors we utilised our previously developed high-throughput DNA polymerase assay. The HT assay is based on a molecular beacon DNA template that forms a stem-loop with a Cy3 dye and the Black Hole Quencher on the 3′ and 5′ ends of the DNA, respectively. DNA polymerase activity extends an annealed primer through the stem region, displacing the fluorophore from the quencher, thereby increasing its fluorescence (Figure 1(A)). The assay accurately recapitulates the kinetic behaviour of apPOL, as measured through more conventional low-throughput gel-based assays. The Z′ factor for the assay described here was 0.9 across all plates (data not shown).
# Figure 1. High-throughput screening. (A) The fluorescent-based DNA polymerase assay used to screen the compound libraries. The DNA template strand is a hairpin loop with a primer annealed to the loop. The 3’ end of the primer is 11 bases away from the 6 bp duplex. Strand displacement activity of the DNA polymerase separates the Cy3 dye from the Black hole quencher leading to an increase in fluorescent signal. (B) The high-throughput assay workflow. The DNA polymerase is incubated with […] compound for 10 min prior to addition of the hairpin substrate. The reaction is quenched at 3 different time points and the fluorescent signal is measured and % inhibition is determined using the provided equation.
# [1] = supplemental file 2, sheet IC50 nontoxic compounds; Pf-apPOL
# P. falciparum apicoplast DNA polymerase (Pf-apPOL), sequence (Q8ILY1 entry or part of it): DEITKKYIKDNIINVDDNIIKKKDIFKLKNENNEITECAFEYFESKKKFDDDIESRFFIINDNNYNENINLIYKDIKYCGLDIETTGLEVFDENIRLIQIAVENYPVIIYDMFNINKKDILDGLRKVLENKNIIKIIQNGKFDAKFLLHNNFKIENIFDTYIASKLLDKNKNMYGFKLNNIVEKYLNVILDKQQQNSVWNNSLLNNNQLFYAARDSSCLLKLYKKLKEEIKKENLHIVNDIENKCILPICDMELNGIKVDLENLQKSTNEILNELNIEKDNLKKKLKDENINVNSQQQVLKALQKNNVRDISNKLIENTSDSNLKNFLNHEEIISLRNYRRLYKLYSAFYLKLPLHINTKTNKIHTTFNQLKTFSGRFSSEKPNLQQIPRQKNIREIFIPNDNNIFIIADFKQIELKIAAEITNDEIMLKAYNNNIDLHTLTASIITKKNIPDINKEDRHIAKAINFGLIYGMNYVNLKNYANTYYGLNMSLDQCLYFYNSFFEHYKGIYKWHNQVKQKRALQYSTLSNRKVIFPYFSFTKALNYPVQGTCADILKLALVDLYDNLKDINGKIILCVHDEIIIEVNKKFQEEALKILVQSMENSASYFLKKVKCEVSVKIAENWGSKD
structure (smiles),measurement,setting,value
"O=C(Cc1cccs1)N1CCN(c2nc(CN3CCOCC3)cs2)CC1 [Molecule 35, O=C(N1CCN(CC1)c1scc(n1)CN1CCOCC1)Cc1cccs1]",% inhibition Apo pol 10',DRC-1; concentration 2.5; 10',-2.34%
same,% inhibition Apol 90',DRC-1; concentration 2.5; 90',-6%
same,% inhibition apPOL 180',DRC-1; concentration 2.5; 180',-10%
same,% inhibition Apo pol 10',DRC-1; concentration 5; 10',14%
same,% inhibition Apol 90',DRC-1; concentration 5; 90',6.43%
same,% inhibition apPOL 180',DRC-1; concentration 5; 180',-2.23%
same,% inhibition Apo pol 10',DRC-1; concentration 10; 10',46%
same,% inhibition Apol 90',DRC-1; concentration 10; 90',34%
same,% inhibition apPOL 180',DRC-1; concentration 10; 180',19%
same,% inhibition Apo pol 10',DRC-1; concentration 20; 10',76%
same,% inhibition Apol 90',DRC-1; concentration 20; 90',68%
same,% inhibition apPOL 180',DRC-1; concentration 20; 180',53%
same,% inhibition Apo pol 10',DRC-1; concentration 40; 10',83%
same,% inhibition Apol 90',DRC-1; concentration 40; 90',83%
same,% inhibition apPOL 180',DRC-1; concentration 40; 180',81%
same,% inhibition Apo pol 10',DRC-1; concentration 80 (unit not given); 10',83%
same,% inhibition Apol 90',DRC-1; concentration 80; 90',86%
same,% inhibition apPOL 180',DRC-1; concentration 80; 180',88%
same,% inhibition Apo pol 5',DRC-2; 5'; concentration 2.5,8%
same,% inhibition Apo pol 5',DRC-2; 5'; concentration 5,19%
same,% inhibition Apo pol 5',DRC-2; 5'; concentration 10,35%
same,% inhibition Apo pol 5',DRC-2; 5'; concentration 40,46%
same,% inhibition Apo pol 5',DRC-2; 5'; concentration 80,35%
same,% inhibition ApPOL 90',DRC-2; 90'; concentration 2.5,8%
same,% inhibition ApPOL 90',DRC-2; 90'; concentration 40,69%
same,% inhibition apPOL 180',DRC-2; 180'; concentration 40,69%
same,% inhibition Apo pol 5',DRC-2; concentration 2.5; 5',8%
same,% inhibition Apol 40',DRC-2; concentration 2.5; 40',9%
same,% inhibition ApPOL 90',DRC-2; concentration 2.5; 90',8%
same,% inhibition apPOL 180',DRC-2; concentration 2.5; 180',1.49%
same,% inhibition Apo pol 5',DRC-2; concentration 5; 5',19%
same,% inhibition Apol 40',DRC-2; concentration 5; 40',22%
same,% inhibition ApPOL 90',DRC-2; concentration 5; 90',20%
same,% inhibition apPOL 180',DRC-2; concentration 5; 180',13%
same,% inhibition Apo pol 5',DRC-2; concentration 10; 5',35%
same,% inhibition Apol 40',DRC-2; concentration 10; 40',43%
same,% inhibition ApPOL 90',DRC-2; concentration 10; 90',41%
same,% inhibition apPOL 180',DRC-2; concentration 10; 180',31%
same,% inhibition Apo pol 5',DRC-2; concentration 20; 5',45%
same,% inhibition Apol 40',DRC-2; concentration 20; 40',61%
same,% inhibition ApPOL 90',DRC-2; concentration 20; 90',62%
same,% inhibition apPOL 180',DRC-2; concentration 20; 180',56%
same,% inhibition Apo pol 5',DRC-2; concentration 40; 5',46%
same,% inhibition Apol 40',DRC-2; concentration 40; 40',64%
same,% inhibition ApPOL 90',DRC-2; concentration 40; 90',69%
same,% inhibition apPOL 180',DRC-2; concentration 40; 180',69%
same,% inhibition Apo pol 5',DRC-2; concentration 80; 5',35%
same,% inhibition Apol 40',DRC-2; concentration 80; 40',59%
same,% inhibition ApPOL 90',DRC-2; concentration 80; 90',65%
same,% inhibition apPOL 180',DRC-2; concentration 80; 180',70%
same,% inhibition Apo pol 10',first dose-response set; 10'; concentration 10,46%
same,% inhibition Apo pol 10',first dose-response set; 10'; concentration 40,83%
same,% inhibition Apo pol 10',first dose-response set; 10'; concentration 80 (unit not given),83%
same,% inhibition Apol 90',first dose-response set; 90'; concentration 40,83%
same,% inhibition apPOL 180',first dose-response set; 180'; concentration 10,19%
same,DNA Pol,"primary screen value of the 186 hits; unit not given; 90 min, 10 µM",37
same,DNA Pol,"primary screen value; head prints only 'DNA Pol'; 90 min, 10 µM",37
CC(C)(C)OC(=O)COc1ccc2cc(-c3ccccc3)c(=O)oc2c1 [Molecule 81],IC50,[1],35 µM
Oc1ccc(N=Nc2ccccc2)c(O)c1 [Molecule 80],IC50,[1],37.5 µM
